Results on 9 compounds are retold here after US12540143B2, “Methods and compositions for targeted protein degradation” (Ranok Therapeutics (Hangzhou) Co. Ltd., priority 2019, dated 2026).

The target of one data set is T1, BRD4 (Homo sapiens, UniProt O60885).
T1 construct: endogenous in cells; host or cells: MV4-11
As to the kind of experiment: BRD4 Degradation Flow Cytometry Assay in MV4-11 cells. It is filed as cell-based. As to conditions: MV4-11 cells; for Percentage BRD4 degradation vs untreated / BRD4 (% of control): 24 hr; for Percentage BRD4 degradation vs untreated: highest degradation percentage observed at concentrations between 40-1000 nM; for BRD4 degradation (in words): flow cytometry. As to the method: Protein Degradation Flow Cytometry
(§1) MV4-11 cells were plated in a 24-well tissue culture plate at a density of 350,000 cells/450 μL/well and incubated in 37° C./5% CO2 for 1 hr. Cells were then treated with compounds at various concentrations and incubated in 37° C./5% CO2 for 24 hr. Cells were harvested, washed once, counted and 200 μL of 1% paraformaldehyde/PBS was added and incubated for 15 min at room temperature. 200 μL of 1×PBS/0.4% Triton X-100 was added and incubated for 15 min at 4° C. Cells were washed three times and resuspended in 50 μL of 1×PBS/0.2% Triton X-100. 2 μL/10^6 cells of anti-BRD4 antibody (ABCAM, #128874) was added and mixed by pipetting up and down. Cells were incubated for 30 min at room temperature in the dark, washed three times and resuspended in 50 μL of 1×PBS/0.2% Triton X-100. Goat anti-rabbit IgG H&L antibody (1:2000 dilution) was added and mixed by pipetting up and down and incubated for 30 min at room temperature in the dark. Finally, cells were washed three times and resuspended in 200 μL of PBS for flow cytometric analysis.

In another data set the test system is MV4-11 cells. Kind of data set: MV4-11 Cytotoxicity Assay. It is filed as cell-based, human. To be noted: Homo sapiens, MV4-11; 72 hr, CCK-8; read-out: MV4-11 cytotoxicity.
Another data set addresses T2, BRD2 (Homo sapiens, UniProt P25440).
T2 construct: endogenous in cells; host or cells: MV4-11
As to the kind of experiment: BET Protein Family Degradation Flow Cytometry Assay (BRD2) in MV4-11 cells. Format: cell-based. As to conditions: 24 hr. Here is the method: as §1
(§2) Similar western blotting experiments of for BRD2 and BRD3 were performed in MV4-11 cells using anti-BRD2 (Cell Signaling Technology, #139690) and anti-BRD3 (Cell Signaling Technology, #50818).
On the technique in general: A flow cytometer gives signals particle by particle.

The target of another data set is T3, BRD3 (Homo sapiens, UniProt Q15059).
T3 construct: endogenous in cells; host or cells: MV4-11
T3 sequence (Q15059 whole entry): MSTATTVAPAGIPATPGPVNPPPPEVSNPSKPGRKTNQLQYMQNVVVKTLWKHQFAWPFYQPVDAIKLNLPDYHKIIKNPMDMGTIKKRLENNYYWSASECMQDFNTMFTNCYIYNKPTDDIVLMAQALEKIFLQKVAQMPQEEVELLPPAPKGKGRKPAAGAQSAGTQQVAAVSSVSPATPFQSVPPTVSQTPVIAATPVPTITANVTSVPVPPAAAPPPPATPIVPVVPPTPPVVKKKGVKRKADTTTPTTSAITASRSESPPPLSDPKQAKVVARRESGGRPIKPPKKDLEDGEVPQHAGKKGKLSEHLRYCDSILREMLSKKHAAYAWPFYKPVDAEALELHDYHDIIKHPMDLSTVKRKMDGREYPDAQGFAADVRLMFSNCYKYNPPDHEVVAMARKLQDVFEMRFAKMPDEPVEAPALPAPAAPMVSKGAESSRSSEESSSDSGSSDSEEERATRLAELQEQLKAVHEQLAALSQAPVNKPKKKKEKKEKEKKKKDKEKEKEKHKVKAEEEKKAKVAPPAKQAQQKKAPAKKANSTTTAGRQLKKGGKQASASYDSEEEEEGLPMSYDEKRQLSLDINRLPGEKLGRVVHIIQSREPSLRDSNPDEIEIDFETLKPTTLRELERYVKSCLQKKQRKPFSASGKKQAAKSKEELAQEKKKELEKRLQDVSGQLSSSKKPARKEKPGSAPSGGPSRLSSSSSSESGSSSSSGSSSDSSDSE
As to the kind of experiment: BET Protein Family Degradation Flow Cytometry Assay (BRD3) in MV4-11 cells. Format: cell-based. As to conditions: 24 hr. As to the method:
as §1, §2

Data set [1] concerns SU-DHL-4 diffuse large B-cell lymphoma xenograft. Kind of data set: SU-DHL-4 DLBCL xenograft model in mice. Here is the method:
10 μL the cell proliferation reagent CCK-8 (WST-8) was added into each well and incubated at 37° C./5% CO2 for 3-4 hr and the absorbance at 450 nm measured with an En Vision Plate Reader.
5×10^6 MV-4-11 or 1×10^7 SU-DHL-4 cells were collected and re-suspended in 0.1 mL of serum-free media with Matrigel (1:1 v/v) per mouse for subcutaneous inoculation in isoflurane anesthetized male BALB/c nude or C.B-17 scid mice, respectively (treated in accordance with AAALAC animal welfare guidelines). When the average tumor volumes reached 100-200 mm^3, tumor volume outliers were removed and the remaining animals randomly divided into groups of 6-8 with similar average tumor volumes in each group. […] Animals were intravenously dosed at 25 mg/kg, 50 mg/kg or 100 mg/kg 1×/week for 3 or 4 weeks. The appearance and behavior of each mouse was observed and recorded daily. Body weights and tumor volumes were measured and recorded every 2-4 days and the results were expressed as group means±SEM. Pairwise statistical comparisons between groups were performed by one-way ANOVA, and p<0.05 was considered statistically significant.

The subject of data set [2] is MV4-11 acute myeloid leukemia xenograft. Kind of data set: MV4-11 AML xenograft model in mice. To be noted: 25 mg/kg intraperitoneal 1×/day. Here is the method: MV4-11 cells were plated in a 96-well tissue culture plate at a density of 4,500 cells/90 μL/well and incubated at 37° C./5% CO2 for 24 hr. Cells were then treated with compounds at various concentrations (a 10-point, 3-fold serial dilution series starting at 20 μM) with a final concentration of 0.5% DMSO/well and then incubated in 37° C./5% CO2 for 72 hr. 10 μL the cell proliferation reagent CCK-8 (WST-8) was added into each well and incubated at 37° C./5% CO2 for 3-4 hr and the absorbance at 450 nm measured with an En Vision Plate Reader.
MV4-11 acute myeloid leukemia and SU-DHL-4 diffuse large B-cell lymphoma (ATCC, #CRL-2957) cells were cultured in medium supplemented with 10% fetal bovine serum at 37° C./5% CO2. 5×10^6 MV-4-11 or 1×10^7 SU-DHL-4 cells were collected and re-suspended in 0.1 mL of serum-free media with Matrigel (1:1 v/v) per mouse for subcutaneous inoculation in isoflurane anesthetized male BALB/c nude or C.B-17 scid mice, respectively (treated in accordance with AAALAC animal welfare guidelines). When the average tumor volumes reached 100-200 mm^3, tumor volume outliers were removed and the remaining animals randomly divided into groups of 6-8 with similar average tumor volumes in each group. […] The appearance and behavior of each mouse was observed and recorded daily. Body weights and tumor volumes were measured and recorded every 2-4 days and the results were expressed as group means±SEM. Pairwise statistical comparisons between groups were performed by one-way ANOVA, and p<0.05 was considered statistically significant.

Setting [3] is: 100 mg/kg intravenous 1×/week, after 4 weeks of dosing.

T2 sequence (P25440 whole entry): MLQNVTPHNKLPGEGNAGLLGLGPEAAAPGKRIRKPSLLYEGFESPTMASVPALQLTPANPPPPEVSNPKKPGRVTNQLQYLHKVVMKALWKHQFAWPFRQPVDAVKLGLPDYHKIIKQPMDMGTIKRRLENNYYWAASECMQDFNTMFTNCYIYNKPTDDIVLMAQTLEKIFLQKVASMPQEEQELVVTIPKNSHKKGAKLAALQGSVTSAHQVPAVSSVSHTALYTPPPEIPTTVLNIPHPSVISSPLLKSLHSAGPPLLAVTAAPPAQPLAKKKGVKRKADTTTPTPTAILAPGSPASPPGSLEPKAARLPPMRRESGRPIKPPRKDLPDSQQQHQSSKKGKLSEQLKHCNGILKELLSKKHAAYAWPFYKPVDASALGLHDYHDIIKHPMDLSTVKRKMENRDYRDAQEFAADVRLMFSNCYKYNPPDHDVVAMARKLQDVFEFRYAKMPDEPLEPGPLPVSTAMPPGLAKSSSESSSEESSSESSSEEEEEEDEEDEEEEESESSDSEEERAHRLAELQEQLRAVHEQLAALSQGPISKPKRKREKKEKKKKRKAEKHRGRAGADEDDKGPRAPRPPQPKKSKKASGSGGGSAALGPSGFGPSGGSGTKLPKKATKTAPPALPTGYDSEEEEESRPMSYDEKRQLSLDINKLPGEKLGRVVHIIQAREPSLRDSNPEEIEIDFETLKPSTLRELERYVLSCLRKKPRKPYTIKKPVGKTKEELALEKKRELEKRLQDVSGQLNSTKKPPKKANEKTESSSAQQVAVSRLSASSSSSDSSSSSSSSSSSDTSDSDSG

On to `CCc1cc(-c2nnc(O)n2-c2ccc(CN3CCN(CC4CCN(C(=O)C[C@@H]5N=C(c6ccc(Cl)cc6)c6c(sc(C)c6C)-n6c(C)nnc65)CC4)CC3)cc2)c(O)cc1O` [Compound 1, 2-((6S)-4-(4-chlorophenyl)-2,3,9-trimethyl-6H-thieno[3,2-f][1,2,4]triazolo[4,3-a][1,4]diazepin-6-yl)-1-(4-((4-(4-(3-(5-ethyl-2,4-dihydroxyphenyl)-5-hydroxy-4H-1,2,4-triazol-4-yl)benzyl)piperazin-1-yl)methyl)piperidin-1-yl)ethanone], for which the “Percentage BRD4 degradation vs untreated” value on BRD4 was “A (Degradation > 50%)”.
Regarding `Cc1cc(-c2nnc(O)n2-c2ccc(CN3CCN(CC4CCN(C(=O)C[C@@H]5N=C(c6ccc(Cl)cc6)c6c(sc(C)c6C)-n6c(C)nnc65)CC4)CC3)cc2)c(O)cc1O` [Compound 9, 2-((6S)-4-(4-chlorophenyl)-2,3,9-trimethyl-6H-thieno[3,2-f][1,2,4]triazolo[4,3-a][1,4]diazepin-6-yl)-1-(4-((4-(4-(3-(2,4-dihydroxy-5-methylphenyl)-5-hydroxy-4H-1,2,4-triazol-4-yl)benzyl)piperazin-1-yl)methyl)piperidin-1-yl)ethanone, trifluoroacetic acid], at BRD4, the “Percentage BRD4 degradation vs untreated” value is on record as “B (10% < Degradation = 10-50%)”. Also, the IC50 in the data set on MV4-11 cells is below 100 nM.
For the compound `Cc1sc2c(c1C)C(c1ccc(Cl)cc1)=N[C@@H](CC(=O)NCCc1ccc(-n3c(O)nnc3-c3cc(C(C)C)c(O)cc3O)cc1)c1nnc(C)n1-2` [Compound 39, 2-((6S)-4-(4-chlorophenyl)-2,3,9-trimethyl-6H-thieno[3,2-f][1,2,4]triazolo[4,3-a][1,4]diazepin-6-yl)-N-(4-(3-(2,4-dihydroxy-5-isopropylphenyl)-5-hydroxy-4H-1,2,4-triazol-4-yl)phenethyl)acetamide], the “Percentage BRD4 degradation vs untreated” value at BRD4 is recorded as “C (Degradation < 10%)”. Moreover, the IC50 in the data set on MV4-11 cells is below 100 nM.
For the compound `Cc1sc2c(c1C)C(c1ccc(Cl)cc1)=N[C@@H](CC(=O)NCC(=O)NCC1CCN(C(=O)C3CCN(Cc4ccc(-n5c(O)nnc5-c5cc(C(C)C)c(O)cc5O)cc4)CC3)CC1)c1nnc(C)n1-2` [Compound 46, (S)-2-(4-(4-chlorophenyl)-2,3,9-trimethyl-6H-thieno[3,2-f][1,2,4]triazolo[4,3-a][1,4]diazepin-6-yl)-N-(2-(((1-(1-(4-(3-(2,4-dihydroxy-5-isopropylphenyl)-5-hydroxy-4H-1,2,4-triazol-4-yl)benzyl)piperidine-4-carbonyl)piperidin-4-yl)methyl)amino)-2-oxoethyl)acetamide, trifluoroacetic acid], the “Percentage BRD4 degradation vs untreated” value on BRD4 is “A (Degradation > 50%)”. Also, in the data set with MV4-11 cells, the IC50 is below 100 nM.
Consider `Cc1sc2c(c1C)C(c1ccc(Cl)cc1)=N[C@@H](CC(=O)NCC(=O)NCC1CCN(C(=O)C3CCN(Cc4ccc(-n5c(O)nnc5-c5cc(C(C)C)c(O)cc5O)cc4)CC3)C1)c1nnc(C)n1-2` (stereo partly drawn) [Compound 47, 2-((S)-4-(4-chlorophenyl)-2,3,9-trimethyl-6H-thieno[3,2-f][1,2,4]triazolo[4,3-a][1,4]diazepin-6-yl)-N-(2-(((1-(1-(4-(3-(2,4-dihydroxy-5-isopropylphenyl)-5-hydroxy-4H-1,2,4-triazol-4-yl)benzyl)piperidine-4-carbonyl)pyrrolidin-3-yl)methyl)amino)-2-oxoethyl)acetamide, trifluoroacetic acid], for which the results for the “BRD4 (% of control)” value on BRD4 (100 nM) and at BRD4 (300 nM) were 17.3 % of control and 9.6 % of control, respectively. The “BRD2 (% of control)” value at BRD2 (100 nM) is 81.2 % of control; on BRD2 (300 nM), 102.2 % of control. For the same compound, the “BRD3 (% of control)” value at BRD3 (100 nM) is reported as 95.0 % of control; at BRD3 (300 nM), 91.4 % of control. Moreover, in the data set with MV4-11 cells, the IC50 was below 100 nM.
For the compound `CCc1cc(-c2nnc(C(=O)NCC(F)(F)F)n2-c2ccc(CN3CCN(CC4CCN(C(=O)C[C@@H]5N=C(c6ccc(Cl)cc6)c6c(sc(C)c6C)-n6c(C)nnc65)CC4)CC3)cc2)c(O)cc1O.Cl` [Compound 78, 4-(4-((4-((1-(2-((6S)-4-(4-chlorophenyl)-2,3,9-trimethyl-6H-thieno[3,2-f][1,2,4]triazolo[4,3-a][1,4]diazepin-6-yl)acetyl)piperidin-4-yl)methyl)piperazin-1-yl)methyl)phenyl)-5-(5-ethyl-2,4-dihydroxyphenyl)-N-(2,2,2-trifluoroethyl)-4H-1,2,4-triazole-3-carboxamide hydrochloride], in data set [1] (setting [3]), the “tumor growth inhibition (FIG. 4a)” value is listed as “significant tumor growth inhibition” and the “tumor vs control (T/C) value” was found to be 28%. The “animal deaths and body weights (FIG. 4b)” value in data set [1] (any dose level, SU-DHL-4 xenograft) was “No animal deaths or significant effects on body weights were observed”.
Regarding `CC(=O)N1CCC(CN2CCN(Cc3ccc(-n4c(O)nnc4-c4cc(C(C)C)c(O)cc4O)cc3)CC2)CC1` [HSP90 binder, 1-(4-((4-(4-(3-(2,4-dihydroxy-5-isopropylphenyl)-5-hydroxy-4H-1,2,4-triazol-4-yl)benzyl)piperazin-1-yl)methyl)piperidin-1-yl)ethan-1-one, reference compound], at BRD4, the “Percentage BRD4 degradation vs untreated” value is listed as “C (Degradation < 10%)” and the “BRD4 degradation (in words)” value is given as “no substantial BRD4 degradation was observed”.
Turning to `Cc1sc2c(c1C)C(c1ccc(Cl)cc1)=N[C@@H](CC(=O)NCCCCNC(=O)COc1cccc3c1C(=O)N(C1CCC(=O)NC1=O)C3=O)c1nnc(C)n1-2` (stereo partly shown) [dBET1], the “BRD2 (% of control)” value on BRD2 (3 nM) is on record as 96.4 % of control; at BRD2 (10 nM), 94.9 % of control; on BRD2 (30 nM) it was 55.1 % of control; at BRD2 (100 nM), 9.3 % of control; at BRD2 (300 nM) it was 0.5 % of control. For the same compound, the “BRD3 (% of control)” value was 89.7 % of control at BRD3 (3 nM); 43.2 % of control at BRD3 (10 nM); 14.5 % of control on BRD3 (30 nM); 1.4 % of control on BRD3 (100 nM); 0.3 % of control at BRD3 (300 nM).
In the case of (+)-JQ1 [reference compound], the “BRD4 degradation (in words)” value on BRD4 is “no substantial BRD4 degradation was observed”. Moreover, the tumor growth inhibition entry in data set [2] is listed as “moderate tumor growth inhibition”.
